Laboratory results published in paper PMC5760624, “Microbiota derived short chain fatty acids promote histone crotonylation in the colon through histone deacetylases” (Nature Communications, 2018).

Assays:
[1] = molecular target: T1, HDAC1 (Homo sapiens, UniProt Q13547); test: in vitro histone decrotonylation/deacetylation assay with recombinant HDAC1, western blot readout; format: biochemical
[2] = molecular target: T1, HDAC1; test: in vitro histone decrotonylation/deacetylation assay with recombinant HDAC1; also used by HDAC1 to crotonylate histones at […] or higher; format: biochemical

T1 sequence (Q13547 whole entry): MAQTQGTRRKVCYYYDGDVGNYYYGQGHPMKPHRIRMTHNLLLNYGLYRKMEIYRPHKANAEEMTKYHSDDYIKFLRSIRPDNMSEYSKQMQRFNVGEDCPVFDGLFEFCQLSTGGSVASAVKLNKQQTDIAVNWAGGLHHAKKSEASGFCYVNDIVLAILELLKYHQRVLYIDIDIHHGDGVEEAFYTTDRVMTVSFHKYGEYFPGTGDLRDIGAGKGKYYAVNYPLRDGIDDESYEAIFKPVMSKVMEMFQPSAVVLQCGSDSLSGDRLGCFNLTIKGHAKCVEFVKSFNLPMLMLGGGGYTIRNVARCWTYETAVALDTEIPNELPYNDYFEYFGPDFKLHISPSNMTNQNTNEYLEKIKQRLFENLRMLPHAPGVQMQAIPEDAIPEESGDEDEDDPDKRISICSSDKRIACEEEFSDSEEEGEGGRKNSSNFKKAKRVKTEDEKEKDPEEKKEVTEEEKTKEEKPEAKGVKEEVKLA

Row | Compound | in vitro histone decrotonylation/deacetylation assay with recombinant HDAC1, wes [1] | in vitro histone decrotonylation/deacetylation assay with recombinant HDAC1; als [2]
1 | CCCC(=O)O [butyrate] | In vitro, HDAC inhibitors TSA and butyrate reduced decrotonylation by HDAC1 significantly | –
2 | CC=CC(=O)O [crotonate] | – | We also found that crotonate inhibited decrotonylation and deacetylation in vitro (Fig. 7c).
